{"source": "patent US20250353873A1", "about": "“COMPOUNDS AND METHODS FOR MODULATING APOE EXPRESSION” (Ionis Pharmaceuticals, Inc., priority 2024, published 2025)", "key": {"human APOE RNA [1]": {"tested_on": "human APOE RNA", "assay": "Dose-dependent inhibition of human APOE RNA in HepG2 cells, electroporation, 50,000 cells per well, RT-PCR normalized to GAPDH (Example 4, Tables 8-10)", "format": "cell-based", "conditions": "HepG2 cells, electroporation, Table 8", "how_it_was_run": "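HepG2 cells, 50,000 per well, electroporated with modified oligonucleotide at various concentrations. APOE RNA quantified by RT-PCR with human primer probe set RTS3073, normalized to GAPDH. Values are percent APOE RNA relative to untreated control cells.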"}, "human APOE RNA [2]": {"tested_on": "human APOE RNA", "assay": "Potency (dose response, ED50) in APOE C57BL/6NTac-Apoeem7250 knock-in mice, 8 weeks (Example 15)", "format": "in vivo", "description": "Modified oligonucleotides described above were tested in the APOE C57BL/6NTac-Apoeem7250 knock-in mouse model described above.\nAPOE C57BL/6NTac-Apoeem7250 knock-in mice were divided into groups of 3-4 mice each. A group of 4 mice received a single ICV bolus with PBS as a negative control.\nEight weeks post treatment, mice were sacrificed, and RNA was extracted from cortical brain tissue and spinal cord for quantitative real-time RT-PCR analysis of RNA expression of […] using human primer probe set RTS3073 (described herein above). APOE RNA levels were normalized to mouse Ppia. Mouse Ppia was amplified using primer probe set m_cyclo24 (described herein above). Results are presented as percent human APOE RNA relative to the amount of APOE RNA in PBS treated animals, (% control). N.C. indicates values that were not calculated.\nThe half maximal effective dose (ED50) of each modified oligonucleotide was calculated using GraphPad Prism 10 software (GraphPad Software, San Diego, CA)."}, "human APOE RNA [3]": {"tested_on": "human APOE RNA", "assay": "Duration of action study in APOE C57BL/6NTac-Apoeem7250 knock-in mice (Example 16)", "format": "in vivo", "conditions": "300 μg ICV", "how_it_was_run": "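Knock-in mice (2-4 per group) received a single ICV bolus of 300 μg oligonucleotide or PBS. At various timepoints, cortex and spinal cord human APOE RNA was measured by RT-qPCR (RTS3073), normalized to mouse Ppia and expressed as % of PBS control.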"}, "human APOE RNA [4]": {"tested_on": "human APOE RNA", "assay": "Dose-dependent reduction of human APOE RNA in HepG2 cells, electroporation, 20,000 cells per well, normalized to PPIA (Example 4, Table 11)", "format": "cell-based", "conditions": "HepG2 cells, 20,000 cells per well, approximately 24 hours", "description": "HepG2 cells plated at a density of 20,000 cells per well were treated by electroporation with various concentrations of modified oligonucleotide as specified in the tables below. […] APOE RNA levels were measured using the human primer probe set RTS3073 (described herein above). APOE RNA levels were normalized to human PPIA. Human PPIA was amplified using human primer probe set mk_cycloA_2nd (forward sequence […], designated herein as SEQ ID NO: 13; reverse sequence […], designated herein as SEQ ID NO: 14; probe sequence […], designated herein as SEQ ID NO: 15). Normalized results are presented in the table below as percent APOE RNA, relative to the amount of APOE RNA in untreated control cells (% UTC). The half maximal inhibitory concentration (IC50) of each modified oligonucleotide was calculated in GraphPad Prism 10 (GraphPad Software, San Diego, CA) and is also presented in the table below."}}, "note": "Strand notation (5' to 3'): a small letter for the sugar, then the base; units joined by * are phosphorothioate-linked, units joined directly phosphodiester-linked; [ ] holds rarer units or linkages, { } end groups; capitals alone tell only the bases. [ms] = mesyl phosphoramidate linkage; k = constrained ethyl (cEt); [5mC] = 5-methylcytosine; d = 2'-deoxy (DNA)"}
{"substance": "^mCksTksTksGdzGdzTdzGdzAdzAdzTds^mCdsTdsTdsTdsAdsTdsTksAksAdzAk (antisense k[5mC]*kT*kT*dG[ms]dG[ms]dT[ms]dG[ms]dA[ms]dA[ms]dT*d[5mC]*dT*dT*dT*dA*dT*kT*kA*dA[ms]kA) [Compound No. 1785602]", "values": [{"measurement": "APOE RNA (% UTC) 5 nM", "setting": "human APOE RNA [1]; 24-hour treatment, 5 nM", "value": 96, "unit": "% UTC"}, {"measurement": "APOE RNA (% UTC) 13 nM", "setting": "human APOE RNA [1]; 24-hour treatment, 13 nM", "value": 109, "unit": "% UTC"}, {"measurement": "APOE RNA (% UTC) 33 nM", "setting": "human APOE RNA [1]; 24-hour treatment, 33 nM", "value": 83, "unit": "% UTC"}, {"measurement": "APOE RNA (% UTC) 82 nM", "setting": "human APOE RNA [1]; 24-hour treatment, 82 nM", "value": 64, "unit": "% UTC"}, {"measurement": "APOE RNA (% UTC) 205 nM", "setting": "human APOE RNA [1]; 24-hour treatment, 205 nM", "value": 55, "unit": "% UTC"}, {"measurement": "APOE RNA (% UTC) 512 nM", "setting": "human APOE RNA [1]; 24-hour treatment, 512 nM", "value": 27, "unit": "% UTC"}, {"measurement": "APOE RNA (% UTC) 1,280 nM", "setting": "human APOE RNA [1]; 24-hour treatment, 1,280 nM", "value": 18, "unit": "% UTC"}, {"measurement": "APOE RNA (% UTC) 3,200 nM", "setting": "human APOE RNA [1]; 24-hour treatment, 3,200 nM", "value": 11, "unit": "% UTC"}, {"measurement": "APOE RNA (% UTC) 8,000 nM", "setting": "human APOE RNA [1]; 24-hour treatment, 8,000 nM", "value": 8, "unit": "% UTC"}, {"measurement": "APOE RNA (% UTC) 20,000 nM", "setting": "human APOE RNA [1]; 24-hour treatment, 20,000 nM", "value": 4, "unit": "% UTC"}, {"measurement": "IC50", "setting": "human APOE RNA [1]; reduction of human APOE RNA, 24-hour treatment", "value": 220, "unit": "nM"}, {"measurement": "APOE RNA (% control) Cortex", "setting": "human APOE RNA [2]; cortex, ICV dose 10 μg", "value": 95, "unit": "% control"}, {"measurement": "APOE RNA (% control) Cortex", "setting": "human APOE RNA [2]; cortex, ICV dose 30 μg", "value": 90, "unit": "% control"}, {"measurement": "APOE RNA (% control) Cortex", "setting": "human APOE RNA [2]; cortex, ICV dose 100 μg", "value": 57, "unit": "% control"}, {"measurement": "APOE RNA (% control) Cortex", "setting": "human APOE RNA [2]; cortex, ICV dose 300 μg", "value": 31, "unit": "% control"}, {"measurement": "APOE RNA (% control) Cortex", "setting": "human APOE RNA [2]; cortex, ICV dose 700 μg", "value": 21, "unit": "% control"}, {"measurement": "ED 50 (μg) Cortex", "setting": "human APOE RNA [2]; cortex, single ICV bolus, GraphPad Prism 10", "value": 153.2, "unit": "µg"}, {"measurement": "APOE RNA (% control) Spinal Cord", "setting": "human APOE RNA [2]; spinal cord, ICV dose 10 μg", "value": 73, "unit": "% control"}, {"measurement": "APOE RNA (% control) Spinal Cord", "setting": "human APOE RNA [2]; spinal cord, ICV dose 30 μg", "value": 40, "unit": "% control"}, {"measurement": "APOE RNA (% control) Spinal Cord", "setting": "human APOE RNA [2]; spinal cord, ICV dose 100 μg", "value": 26, "unit": "% control"}, {"measurement": "APOE RNA (% control) Spinal Cord", "setting": "human APOE RNA [2]; spinal cord, ICV dose 300 μg", "value": 20, "unit": "% control"}, {"measurement": "APOE RNA (% control) Spinal Cord", "setting": "human APOE RNA [2]; spinal cord, ICV dose 700 μg", "value": 22, "unit": "% control"}, {"measurement": "ED 50 (μg) Spinal Cord", "setting": "human APOE RNA [2]; spinal cord, single ICV bolus, GraphPad Prism 10", "value": 26.9, "unit": "µg"}, {"measurement": "APOE RNA (% control) Cortex", "setting": "human APOE RNA [3]; 7 days post-dose", "value": 40, "unit": "% control"}, {"measurement": "APOE RNA (% control) Cortex", "setting": "human APOE RNA [3]; 14 days post-dose", "value": 30, "unit": "% control"}, {"measurement": "APOE RNA (% control) Spinal Cord", "setting": "human APOE RNA [3]; 7 days post-dose", "value": 56, "unit": "% control"}, {"measurement": "APOE RNA (% control) Spinal Cord", "setting": "human APOE RNA [3]; 14 days post-dose", "value": 28, "unit": "% control"}, {"measurement": "APOE RNA (% UTC) 5 nM", "setting": "human APOE RNA [4]; PPIA-normalized, 5 nM", "value": 75, "unit": "% UTC"}, {"measurement": "APOE RNA (% UTC) 13 nM", "setting": "human APOE RNA [4]; PPIA-normalized, 13 nM", "value": 85, "unit": "% UTC"}, {"measurement": "APOE RNA (% UTC) 33 nM", "setting": "human APOE RNA [4]; PPIA-normalized, 33 nM", "value": 75, "unit": "% UTC"}, {"measurement": "APOE RNA (% UTC) 82 nM", "setting": "human APOE RNA [4]; PPIA-normalized, 82 nM", "value": 62, "unit": "% UTC"}, {"measurement": "APOE RNA (% UTC) 205 nM", "setting": "human APOE RNA [4]; PPIA-normalized, 205 nM", "value": 44, "unit": "% UTC"}, {"measurement": "APOE RNA (% UTC) 512 nM", "setting": "human APOE RNA [4]; PPIA-normalized, 512 nM", "value": 31, "unit": "% UTC"}, {"measurement": "APOE RNA (% UTC) 1,280 nM", "setting": "human APOE RNA [4]; PPIA-normalized, 1,280 nM", "value": 16, "unit": "% UTC"}, {"measurement": "APOE RNA (% UTC) 3,200 nM", "setting": "human APOE RNA [4]; PPIA-normalized, 3,200 nM", "value": 10, "unit": "% UTC"}, {"measurement": "APOE RNA (% UTC) 8,000 nM", "setting": "human APOE RNA [4]; PPIA-normalized, 8,000 nM", "value": 8, "unit": "% UTC"}, {"measurement": "APOE RNA (% UTC) 20,000 nM", "setting": "human APOE RNA [4]; PPIA-normalized, 20,000 nM", "value": 2, "unit": "% UTC"}, {"measurement": "IC50", "setting": "human APOE RNA [4]; reduction of human APOE RNA, PPIA-normalized", "value": 140, "unit": "nM"}]}
